The source of these data is patent US11414424B2, “Cardiac sarcomere inhibitors” (Cytokinetics, Inc., priority 2018, dated 2022).

The subject of this test is bovine cardiac myofibrils. Nature of the test: Myofibril assay: PK/LDH-coupled steady-state ATPase activity of skinned bovine cardiac myofibrils. Type of test: biochemical. Particulars: Ca2+ activating to 75% of maximal rate. In short, it runs like this: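 Steady-state ATPase of detergent-skinned bovine left-ventricular myofibrils (1 mg/mL), PK/LDH-coupled NADH read at 340 nm, in PIPES/MgCl2 buffer pH 6.8 with 50 μM ATP, 0.6 mM EGTA and CaCl2 set for 50% or 75% activation. Inhibition of activity measured.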

Regarding `CNC(=O)N1CC2(C1)C(=O)N(C(C)c1ccc(C#N)cc1)CC(=O)N2Cc1ccc(C(F)(F)F)cc1` (stereo not drawn) [Compound 338, 8-(1-(4-cyanophenyl)ethyl)-N-methyl-6,9-dioxo-5-(4-(trifluoromethyl)benzyl)-2,5,8-triazaspiro[3.5]nonane-2-carboxamide], the “CDMF75 IC15” value stood at 1.51 µM.

For `COc1cnc(N2CC(=O)N(Cc3ccc(C)cc3)C(C3COC3)C2=O)c(F)c1` (stereo not drawn) [Compound 758, 1-(3-fluoro-5-methoxy-pyridin-2-yl)-4-(4-methyl-benzyl)-3-(oxetan-3-yl)-piperazine-2,5-dione], the “CDMF75 IC15” value was 19.4 µM. The figure for `COC(=O)c1ccccc1N1CC2(C1)C(=O)N(c1ccc(C#N)cc1F)CC(=O)N2Cc1ccc(C(F)(F)F)cc1` [Compound 532, methyl 2-(8-(4-cyano-2-fluorophenyl)-6,9-dioxo-5-(4-(trifluoromethyl)benzyl)-2,5,8-triazaspiro[3.5]nonan-2-yl)benzoate] is 0.2 µM; for `COc1cnc(N2CC(=O)N(Cc3ccc(C)c(F)c3)C(C3COC3)C2=O)c(F)c1` (stereo not drawn) [Compound 761, 4-(3-fluoro-4-methyl-benzyl)-1-(3-fluoro-5-methoxypyridin-2-yl)-3-(oxetan-3-yl)piperazine-2,5-dione] it is 16.3 µM. As to `CC(C)N1CC(=O)N(Cc2ccc(C(F)(F)F)cn2)C(c2ccc(Cl)cc2)C1=O` (stereo not drawn) [Compound 315, 3-(4-chlorophenyl)-1-isopropyl-4-((5-(trifluoromethyl)pyridin-2-yl)methyl)piperazine-2,5-dione], the “CDMF75 IC15” value is 28.9 µM. Then `Cc1ccccc1CN1C(=O)CN(C(C)C)C(=O)C1c1ccc(Cl)cc1` (stereo not drawn) [Compound 300, 3-(4-chlorophenyl)-1-isopropyl-4-(2-methylbenzyl)piperazine-2,5-dione], with 28.3 µM; and `C[C@@H](c1ccc(Cl)cc1)N1C(=O)CN(c2ncc(Cl)cc2F)C(=O)C12COC2` [Compound 558], with 7.04 µM. The figure for `CC(C)N1CC(=O)N(Cc2ccc(Cl)cc2)C2(CCN(c3cc(C#N)ccn3)C2)C1=O` (stereo not drawn) [Compound 95, 2-(6-(4-chlorobenzyl)-9-isopropyl-7,10-dioxo-2,6,9-triazaspiro[4.5]decan-2-yl)isonicotinonitrile] is 5.0 µM. Then `N#Cc1ccc(N2CC(=O)N(Cc3ccc(C(F)(F)F)cc3)[C@]3(CCN(C(=O)C4COC4)C3)C2=O)c(F)c1` [Compound 215, (S)-3-fluoro-4-(2-(oxetane-3-carbonyl)-7,10-dioxo-6-(4-(trifluoromethyl)benzyl)-2,6,9-triazaspiro[4.5]decan-9-yl)benzonitrile], with 1.3 µM.

Consider `CC(C)N1CC(=O)N(Cc2ccc(Cl)cc2)C2(CCN(c3cc(C(N)=O)ccn3)C2)C1=O` (stereo not drawn) [Compound 97, 2-(6-(4-chlorobenzyl)-9-isopropyl-7,10-dioxo-2,6,9-triazaspiro[4.5]decan-2-yl)isonicotinamide], for which the “CDMF75 IC15” value worked out at 3.1 µM. Then `O=C1C(C2COC2)N(Cc2ccc(F)cc2)C(=O)CN1c1ncc(Cl)cc1F` (stereo not drawn) [Compound 646, 1-(5-chloro-3-fluoropyridin-2-yl)-4-(4-fluorobenzyl)-3-(oxetan-3-yl)piperazine-2,5-dione], with 3.3 µM; and `CC(=O)N1CC2(C1)CC1(C2)C(=O)N(c2ncc(Cl)cc2F)CC(=O)N1Cc1ccc(F)cc1` [Compound 827, 2-acetyl-10-(5-chloro-3-fluoropyridin-2-yl)-7-(4-fluorobenzyl)-2,7,10-triazadispiro[3.1.56.14]-dodecane-8,11-dione], with 2.68 µM; and `O=C1C(CO)N(Cc2ccc(C(F)(F)F)cc2)C(=O)CN1c1ncc(Cl)cc1F` (single isomer, unassigned) [Compound 857A, 1-(5-chloro-3-fluoropyridin-2-yl)-3-(hydroxymethyl)-4-(4-(trifluoromethyl)benzyl)piperazine-2,5-dione], with 5.3 µM.

In the case of `CC(C)N1CC(=O)N(Cc2ccc(Cl)cc2)C2(CCN(C(N)=O)C2)C1=O` (single isomer, unassigned) [Compound 367B, 6-[(4-chlorophenyl)methyl]-7,10-dioxo-9-(propan-2-yl)-2,6,9-triazaspiro[4.5]decane-2-carboxamide], the “CDMF75 IC15” value is more than 39 µM.

Consider `O=C1C(CC2COC2)N(Cc2ccc(Cl)cc2)C(=O)CN1c1ncc(Cl)cc1F` (stereo not drawn) [Compound 640, 1-(5-chloro-3-fluoropyridin-2-yl)-4-(4-chlorobenzyl)-3-(oxetan-3-ylmethyl)-piperazine-2,5-dione], for which the “CDMF75 IC15” value came out at 1.6 µM. Then `CC(C)N1CC(=O)N(Cc2ccc(Cl)cc2)C2(CN(c3cnc(Cl)cn3)C2)C1=O` [Compound 56, 5-(4-chlorobenzyl)-2-(5-chloropyrazin-2-yl)-8-isopropyl-2,5,8-triazaspiro[3.5]nonane-6,9-dione], with 18.3 µM; and `Cc1ccc(CN2C(=O)CN(C(C)C)C(=O)C2c2ccc(Cl)cc2)cc1` (stereo not drawn) [Compound 305, 3-(4-chlorophenyl)-1-isopropyl-4-(4-methylbenzyl)piperazine-2,5-dione], with 6.0 µM.

For the compound `CC(C)N1CC(=O)N(Cc2cccc(C#N)c2)C(c2ccc(Cl)cc2)C1=O` (stereo not drawn) [Compound 306, 3-((2-(4-chlorophenyl)-4-isopropyl-3,6-dioxo-piperazin-1-yl)methyl)-benzonitrile], the “CDMF75 IC15” value worked out at 27.0 µM. The figure for `O=C1C(C2CC(O)C2)N(Cc2ccc(F)cc2)C(=O)CN1c1ccc(Cl)cc1F` (single isomer, unassigned) [Compound 866A, 1-(4-chloro-2-fluorophenyl)-4-(4-fluorobenzyl)-3-(3-hydroxycyclobutyl)piperazine-2,5-dione] is 4.4 µM; for `O=C1CN(c2ccc(Cl)cc2F)C(=O)C2(COC2)N1Cc1ccc(C(F)(F)F)cc1` [Compound 274, 8-(4-chloro-2-fluorophenyl)-5-(4-(trifluoromethyl)-benzyl)-2-oxa-5,8-diazaspiro[3.5]nonane-6,9-dione] it is 1.0 µM; for `CC(C)N1CC(=O)N(Cc2ccc(Cl)cc2)C(c2cccc(Cl)c2)C1=O` (stereo not drawn) [Compound 312, 4-(4-chlorobenzyl)-3-(3-chlorophenyl)-1-isopropylpiperazine-2,5-dione] it is 4.9 µM. Then `CC(C)N1CC(=O)N(Cc2ccc(Cl)c(Cl)c2)C2(CCN(c3ccc(C(N)=O)cn3)C2)C1=O` (stereo not drawn) [Compound 91, 6-(6-(3,4-dichlorobenzyl)-9-isopropyl-7,10-dioxo-2,6,9-triazaspiro[4.5]decan-2-yl)nicotinamide], with 1.1 µM.

With `CNC(=O)N1CC2(C1)C(=O)N(c1ccc(C#N)cc1)CC(=O)N2Cc1ccc(C(F)(F)F)cc1` [Compound 146, 8-(4-cyanophenyl)-N-methyl-6,9-dioxo-5-(4-(trifluoromethyl)benzyl)-2,5,8-triazaspiro[3.5]-nonane-2-carboxamide], the “CDMF75 IC15” value turned out to be 1.2 µM.

As to `O=C1C(C23CC(O)(C2)C3)N(Cc2ccc(C(F)F)cc2)C(=O)CN1c1ncc(Cl)cc1F` (stereo not drawn) [Compound 849, 1-(5-chloro-3-fluoropyridin-2-yl)-4-(4-(difluoromethyl)-benzyl)-3-(3-hydroxy-bicyclo[1.1.1]pentan-1-yl)piperazine-2,5-dione], the “CDMF75 IC15” value worked out at 5.7 µM. Then `CC(=O)N1CC(CC2C(=O)N(c3ncc(Cl)cc3F)CC(=O)N2Cc2ccc(Cl)cc2)C1` (stereo not drawn) [Compound 662, 3-((1-acetylazetidin-3-yl)methyl)-l-(5-chloro-3-fluoropyridin-2-yl)-4-(4-chlorobenzyl)piperazine-2,5-dione], with 16.4 µM; and `CC(=O)N1CC2(C1)C(=O)N(c1ncc(Cl)cc1F)CC(=O)N2[C@@H](C)c1ccc(C(F)(F)F)cc1` [Compound 570, (S)-2-acetyl-8-(5-chloro-3-fluoropyridin-2-yl)-5-(1-(4-(trifluoromethyl)phenyl)-ethyl)-2,5,8-triazaspiro-[3.5]nonane-6,9-dione], with 2.2 µM; and `Cc1ccc(N2CC3(C2)C(=O)N(C(C)C)CC(=O)N3Cc2ccc(Cl)cc2)nc1` [Compound 9, 5-(4-chlorobenzyl)-8-isopropyl-2-(5-methyl-pyridin-2-yl)-2,5,8-triazaspiro[3.5]nonane-6,9-dione], with 2.4 µM. With `CS(=O)(=O)CCC1C(=O)N(c2ncc(Cl)cc2F)CC(=O)N1Cc1ccc(C(F)(F)F)cc1` (stereo not drawn) [Compound 612, 1-(5-chloro-3-fluoropyridin-2-yl)-3-(2-(methylsulfonyl)-ethyl)-4-(4-(trifluoro-methyl)benzyl)piperazine-2,5-dione], the “CDMF75 IC15” value is 13.6 µM. Take `CNC(=O)[C@H]1C[C@]2(C1)C(=O)N(C(C)C)CC(=O)N2Cc1ccc(C(F)(F)F)cc1` [Compound 498B]: the “CDMF75 IC15” value is 29.8 µM. As to `CC(=O)N1CC2(C1)CC1(C2)C(=O)N(c2ncc(Cl)cc2F)CC(=O)N1Cc1ccc(C(F)(F)F)cc1` [Compound 825, 2-acetyl-10-(5-chloro-3-fluoropyridin-2-yl)-7-(4-(trifluoromethyl)benzyl)-2,7,10-triazadispiro-[3.1.56.14]dodecane-8,11-dione], the “CDMF75 IC15” value worked out at 0.7 µM. Then `O=C1C(C2COC2)N(Cc2ccc(Cl)cc2)C(=O)CN1c1ncc(Br)cc1F` (stereo not drawn) [Compound 708, 1-(5-bromo-3-fluoropyridin-2-yl)-4-(4-chlorobenzyl)-3-(oxetan-3-yl)piperazine-2,5-dione], with 1.4 µM; and `CC(=O)N1CC2(C1)CC1(C2)C(=O)N(c2ncc(Cl)cc2F)CC(=O)N1Cc1ccc(Cl)cc1` [Compound 831, 2-acetyl-10-(5-chloro-3-fluoropyridin-2-yl)-7-(4-chlorobenzyl)-2,7,10-triazadispiro[3.1.56.14]-dodecane-8,11-dione], with 0.53 µM. Then `Cc1cc(Cl)cnc1N1CC(=O)N(Cc2ccc(C(F)(F)F)cc2)C(C2COC2)C1=O` (stereo not drawn) [Compound 645, 1-(5-chloro-3-methylpyridin-2-yl)-3-(oxetan-3-yl)-4-(4-(trifluoromethyl)benzyl)-piperazine-2,5-dione], with 5.8 µM.
